In article PMC4924682, “Monoamine oxidase A (MAO A) inhibitors decrease glioma progression” (Oncotarget, 2016):

Experiments:
[1] = biological target: T1, Monoamine Oxidase A (MAO A) (Homo sapiens, UniProt P21397); test: radioassay of […]-5-HT turnover in U251S and U251R human glioma cells; type: cell-based
T1 construct: gene MAOA
T1 sequence (P21397 1-527): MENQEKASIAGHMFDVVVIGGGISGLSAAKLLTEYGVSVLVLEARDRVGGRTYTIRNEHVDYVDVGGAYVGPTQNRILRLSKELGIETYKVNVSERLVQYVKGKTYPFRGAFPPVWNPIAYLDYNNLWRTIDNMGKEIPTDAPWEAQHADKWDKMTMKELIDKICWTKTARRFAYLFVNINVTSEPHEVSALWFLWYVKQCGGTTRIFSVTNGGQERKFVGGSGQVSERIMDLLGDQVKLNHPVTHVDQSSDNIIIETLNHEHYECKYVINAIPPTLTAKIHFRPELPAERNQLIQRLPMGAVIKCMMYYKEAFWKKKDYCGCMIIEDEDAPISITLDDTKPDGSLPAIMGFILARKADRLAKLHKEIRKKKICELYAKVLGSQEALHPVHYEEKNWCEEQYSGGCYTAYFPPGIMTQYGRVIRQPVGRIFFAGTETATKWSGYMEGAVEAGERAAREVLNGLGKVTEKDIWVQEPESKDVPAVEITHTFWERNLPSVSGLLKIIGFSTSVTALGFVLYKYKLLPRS

[2] = biological target: T2, Monoamine Oxidase A (MAO A) (Mus musculus, UniProt Q64133); test: radioassay of […]-5-HT turnover in GL26 mouse glioma cells; type: cell-based
T2 construct: gene Maoa
T2 sequence (Q64133 1-526): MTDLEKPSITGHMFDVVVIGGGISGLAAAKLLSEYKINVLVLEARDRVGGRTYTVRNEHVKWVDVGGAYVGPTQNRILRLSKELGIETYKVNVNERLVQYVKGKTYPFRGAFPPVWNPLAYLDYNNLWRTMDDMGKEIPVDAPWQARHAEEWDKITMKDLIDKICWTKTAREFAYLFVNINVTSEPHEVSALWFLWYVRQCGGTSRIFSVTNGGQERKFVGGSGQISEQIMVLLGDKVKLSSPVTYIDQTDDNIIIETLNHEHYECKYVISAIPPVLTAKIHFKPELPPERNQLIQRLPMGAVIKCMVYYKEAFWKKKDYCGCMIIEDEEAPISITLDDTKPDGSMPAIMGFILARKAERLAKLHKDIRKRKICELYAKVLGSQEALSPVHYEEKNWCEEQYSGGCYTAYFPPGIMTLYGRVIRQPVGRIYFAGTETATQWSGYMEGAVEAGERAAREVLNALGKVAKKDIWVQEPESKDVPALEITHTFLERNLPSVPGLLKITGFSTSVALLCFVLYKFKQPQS

With `NCCc1c[nH]c2ccc(O)cc12` [serotonin] the “radioassay of 14C-5-HT turnover in U251S and U251R human glioma cells” value [1] was “MAO A catalytic activity was determined in human and mouse glioma cell lines using serotonin as the substrate” and the “radioassay of 14C-5-HT turnover in GL26 mouse glioma cells” value [2] was “MAO A catalytic activity was determined in human and mouse glioma cell lines using serotonin as the substrate”.
